Results published in ChEMBL document CHEMBL1201862, “PubChem BioAssay data set” (2004).
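Growth conditions: 96-well plates. Treatment: test compound, 48 hours, 5 concentrations. Analysis: linear interpolation between bracketing concentrations; unreached endpoints set to highest concentration. Abbreviation: GI50, concentration required for 50% inhibition of growth.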 The source made the active and inactive calls. No stated cut-off is given here; in the data, active = GI50 up to about 1.1 µM and inactive = higher.

How the values were obtained:
Assay in all cases: NCI tumour cell line growth inhibition, 48 h
[1] = test system: HCC 2998
[2] = test system: KM12
[3] = test system: TK-10
[4] = test system: Hs-578T
[5] = test system: EKVX
[6] = test system: BT-549
[7] = test system: MOLT-4
[8] = test system: Malme-3M
[9] = test system: SNB-19
[10] = test system: SR
[11] = test system: HOP-62
[12] = test system: T47D
[13] = test system: HT-29
[14] = test system: OVCAR-4
[15] = test system: 786-0
[16] = test system: PC-3
[17] = test system: U-251
[18] = test system: MDA-MB-231
[19] = test system: UACC-257

SMILES	GI50 [1]	GI50 [2]	GI50 [3]	GI50 [4]	GI50 [5]	GI50 [6]	GI50 [7]	GI50 [8]	GI50 [9]	GI50 [10]	GI50 [11]	GI50 [12]	GI50 [13]	GI50 [14]	GI50 [15]	GI50 [16]	GI50 [17]	GI50 [18]	GI50 [19]
N=C(N)N/N=C/c1c(-c2ccc([N+](=O)[O-])cc2)nc2sc(Cl)cn12	0.26 µM (active)	0.809 µM (active)	2.05 µM (inactive)	1.03 µM (active)	0.611 µM (active)	1.8 µM (inactive)	0.247 µM (active)	1.47 µM (inactive)	0.667 µM (active)	0.0731 µM (active)	0.635 µM (active)	0.92 µM (active)	1.18 µM (inactive)	0.441 µM (active)	0.212 µM (active)	1.12 µM (active)	0.418 µM (active)	0.262 µM (active)	
CCCCCC(CO)C(O)(C(F)(F)F)C(F)(F)F (configuration not stated)	> 10 µM (inactive)	> 10 µM (inactive)	> 10 µM (inactive)	> 10 µM (inactive)	> 10 µM (inactive)	> 10 µM (inactive)	> 10 µM (inactive)	> 10 µM (inactive)	> 10 µM (inactive)	> 10 µM (inactive)	> 10 µM (inactive)	> 10 µM (inactive)	> 10 µM (inactive)	> 10 µM (inactive)	> 10 µM (inactive)	> 10 µM (inactive)	> 10 µM (inactive)	> 10 µM (inactive)	> 10 µM (inactive)
O=CC1C(Cl)=Nc2nc3ccccc3n2C1c1ccccc1 (configuration not stated)	18.2 µM (inactive)	23.4 µM (inactive)	26.3 µM (inactive)	0.741 µM (active)	25.2 µM (inactive)	15.2 µM (inactive)		23.9 µM (inactive)	25.5 µM (inactive)	0.861 µM (active)	18.1 µM (inactive)	17.1 µM (inactive)	19.1 µM (inactive)	15.2 µM (inactive)	15.6 µM (inactive)	17.3 µM (inactive)	18.2 µM (inactive)	17.1 µM (inactive)	22.6 µM (inactive)
O=Cc1cc(C(=O)OCc2ccccc2)n(S(=O)(=O)c2ccccc2)c1	17 µM (inactive)	13.4 µM (inactive)	24 µM (inactive)	15.8 µM (inactive)	23.3 µM (inactive)	16 µM (inactive)	23 µM (inactive)	30.5 µM (inactive)	29.2 µM (inactive)	3.47 µM (inactive)	13.2 µM (inactive)	30.5 µM (inactive)	21.7 µM (inactive)	43.5 µM (inactive)	30.7 µM (inactive)	16.6 µM (inactive)		37.7 µM (inactive)	24.7 µM (inactive)
CCc1ccc2c(c1)/C(=C1/Nc3ccccc3C1=O)C(=O)N2	15.7 µM (inactive)	0.428 µM (active)	17 µM (inactive)	11 µM (inactive)	5.36 µM (inactive)	25.1 µM (inactive)	19.2 µM (inactive)	35.4 µM (inactive)	11 µM (inactive)	14.1 µM (inactive)	14.2 µM (inactive)	4.65 µM (inactive)	25.4 µM (inactive)	7.82 µM (inactive)	5.78 µM (inactive)	14.5 µM (inactive)	13.5 µM (inactive)	34 µM (inactive)	30.5 µM (inactive)
COc1ccc(OC)c(NC(=O)C(=O)Nn2c(S)nc3ccccc3c2=O)c1	> 100 µM (inactive)	> 100 µM (inactive)	> 100 µM (inactive)	> 100 µM (inactive)	82.2 µM (inactive)	> 100 µM (inactive)	> 100 µM (inactive)	> 100 µM (inactive)	> 100 µM (inactive)	> 100 µM (inactive)	> 100 µM (inactive)	> 100 µM (inactive)	> 100 µM (inactive)	> 100 µM (inactive)	> 100 µM (inactive)	> 100 µM (inactive)	> 100 µM (inactive)	> 100 µM (inactive)	> 100 µM (inactive)
CC1(C)c2ccccc2C(=O)C12CCC(=O)CC2	> 100 µM (inactive)	> 100 µM (inactive)	> 100 µM (inactive)	69.8 µM (inactive)	> 100 µM (inactive)	> 100 µM (inactive)	> 100 µM (inactive)	60.5 µM (inactive)	> 100 µM (inactive)	> 100 µM (inactive)	> 100 µM (inactive)	> 100 µM (inactive)	> 100 µM (inactive)	> 100 µM (inactive)	> 100 µM (inactive)	> 100 µM (inactive)	> 100 µM (inactive)	> 100 µM (inactive)	> 100 µM (inactive)
c1ccc(-c2sc(-c3cccs3)cc2Cc2cccs2)cc1	> 10 µM (inactive)	> 10 µM (inactive)	> 10 µM (inactive)	> 10 µM (inactive)	> 10 µM (inactive)	> 10 µM (inactive)	> 10 µM (inactive)	> 10 µM (inactive)	> 10 µM (inactive)	> 10 µM (inactive)	> 10 µM (inactive)	> 10 µM (inactive)	> 10 µM (inactive)	> 10 µM (inactive)	> 10 µM (inactive)	> 10 µM (inactive)		> 10 µM (inactive)	> 10 µM (inactive)
COc1ccc(P2(=S)OCCOP(=S)(c3ccc(OC)cc3)S2)cc1 (configuration not stated)	2.87 µM (inactive)	2.87 µM (inactive)	16.3 µM (inactive)	5.48 µM (inactive)	> 21.8 µM (inactive)	13.9 µM (inactive)	2.87 µM (inactive)	13.7 µM (inactive)	3.71 µM (inactive)	3.6 µM (inactive)	3.58 µM (inactive)	41.8 µM (inactive)	2.64 µM (inactive)	12.3 µM (inactive)	4.79 µM (inactive)	2.26 µM (inactive)	4.03 µM (inactive)	3.13 µM (inactive)	11.2 µM (inactive)
CSc1c2c(C)n[nH]c2nn1-c1ccccc1	57.8 µM (inactive)	68.7 µM (inactive)	> 100 µM (inactive)	> 100 µM (inactive)	83.4 µM (inactive)	80 µM (inactive)	42.6 µM (inactive)	> 100 µM (inactive)	> 100 µM (inactive)	20.2 µM (inactive)		85.1 µM (inactive)	36 µM (inactive)	53.7 µM (inactive)	66.8 µM (inactive)	58.7 µM (inactive)	61.4 µM (inactive)	18.4 µM (inactive)	> 100 µM (inactive)
O=c1oc2ccccc2c(Nc2ccc3c(c2)S(=O)(=O)c2ccccc2O3)c1[N+](=O)[O-]	18.5 µM (inactive)	28.9 µM (inactive)	22.4 µM (inactive)	36.7 µM (inactive)	30.6 µM (inactive)	24.2 µM (inactive)		23.5 µM (inactive)	26.9 µM (inactive)	22 µM (inactive)	30 µM (inactive)	18.7 µM (inactive)	34.5 µM (inactive)	20 µM (inactive)	21.1 µM (inactive)	21.5 µM (inactive)	19.7 µM (inactive)	24.5 µM (inactive)	19.5 µM (inactive)
Cn1c(=O)c2c(nc3n2CCC(=O)N3CCCCl)n(C)c1=O	> 100 µM (inactive)	> 100 µM (inactive)	> 100 µM (inactive)	> 100 µM (inactive)	> 100 µM (inactive)	> 100 µM (inactive)	> 100 µM (inactive)		> 100 µM (inactive)	> 100 µM (inactive)	> 100 µM (inactive)	> 100 µM (inactive)	> 100 µM (inactive)	> 100 µM (inactive)	> 100 µM (inactive)	> 100 µM (inactive)	> 100 µM (inactive)	> 100 µM (inactive)	> 100 µM (inactive)
Cc1ccc(S(=O)(=O)NN=C2C(C)CC(C(C)(C)C)CC2C)cc1 (configuration not stated)	17.7 µM (inactive)	17.6 µM (inactive)	26.4 µM (inactive)	37.2 µM (inactive)		17.9 µM (inactive)	20.6 µM (inactive)	17.8 µM (inactive)	26.3 µM (inactive)	26.8 µM (inactive)	16.4 µM (inactive)	21.7 µM (inactive)	18.5 µM (inactive)	14.9 µM (inactive)	17.4 µM (inactive)	18.8 µM (inactive)	17.7 µM (inactive)	28.6 µM (inactive)	19.1 µM (inactive)
O=C(O)C1=C(C(=O)O)N(c2ccncc2)C(c2ccco2)=CC1c1ccccc1[N+](=O)[O-] (configuration not stated)	1.9 µM (inactive)	1.62 µM (inactive)	6.01 µM (inactive)	16.7 µM (inactive)	11.2 µM (inactive)	13.2 µM (inactive)	3.44 µM (inactive)	0.925 µM (active)	12.9 µM (inactive)	2.03 µM (inactive)	13.4 µM (inactive)	7.82 µM (inactive)	2.18 µM (inactive)	13 µM (inactive)	2.04 µM (inactive)	13.4 µM (inactive)	4.92 µM (inactive)	14.2 µM (inactive)	2.22 µM (inactive)
CC(O)(C(=O)N(O)c1ccc(Cl)cc1)c1ccc(Cl)cc1 (configuration not stated)	13 µM (inactive)	12.8 µM (inactive)	29.7 µM (inactive)	16.9 µM (inactive)	39.3 µM (inactive)	21.6 µM (inactive)	12.5 µM (inactive)	28.1 µM (inactive)	48.2 µM (inactive)	13.8 µM (inactive)	26.7 µM (inactive)	31.6 µM (inactive)	31 µM (inactive)	37.9 µM (inactive)	28.8 µM (inactive)	22.1 µM (inactive)	23.6 µM (inactive)	22.8 µM (inactive)	24.8 µM (inactive)
